Data reported in patent US20220370416A1, “COMPOUNDS AND METHODS FOR TARGETED DEGRADATION OF KRAS” (Arvinas Operations, Inc., priority 2020, published 2022).

Target: HiBit-KRAS^G12C (Homo sapiens, UniProt P01116, G12C)
Assay: HiBit degradation assay in SW1573 HiBit-KRas^G12C cells
Format: cell-based
Design: expressed in transfected cells; host or cells: SW1573 (clone E6), modified pcDNA3.1 vector, TK promoter
Conditions: 0.1% DMSO, 24 hours; for DC50: SW1573 HiBit-KRas^G12C, read-out: KRas^G12C-HIBit (SW1573; 0.1% DMSO) DC50*; for Dmax: SW1573, SW1573 HiBit-KRas^G12C, read-out: KRas^G12C-HiBit (SW1573; 0.1% DMSO) Dmax**
How it was run: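 HiBit-KRAS G12C degradation was measured after a 24 h compound exposure (titrated 10 μM–20 nM) in engineered SW1573 cells. Lytic HiBit luminescence, expressed relative to DMSO controls, yielded DC50 and Dmax from 4-parameter fits. Concentrations causing ≥50% loss in alamar blue viability were omitted as cytotoxic.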

Chain of HiBit-KRAS^G12C (P01116 1-186 isoform P01116-2 G12C limits assumed): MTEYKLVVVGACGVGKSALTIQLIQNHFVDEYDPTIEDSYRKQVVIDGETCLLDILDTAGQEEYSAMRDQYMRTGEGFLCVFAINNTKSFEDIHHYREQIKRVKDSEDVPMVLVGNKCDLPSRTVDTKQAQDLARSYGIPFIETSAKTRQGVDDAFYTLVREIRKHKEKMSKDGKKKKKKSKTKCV

DC50 [nM] | Dmax [%] | Structure (SMILES)
> 1000 | – | C=CC(=O)N1CCN(c2nc(O[C@H](C)CN3CCC(OCCOCCOCCOCCOCCOCCOCCOCCOCCOCCOCC(=O)N[C@H](C(=O)N4C[C@H](O)C[C@H]4C(=O)N[C@@H](C)c4ccc(-c5scnc5C)cc4)C(C)(C)C)CC3)nc3c(F)c(-c4cc(O)cc5ccccc45)c(Cl)cc23)CC1 [Compound 83, (2S,4R)-1-[(2S)-2-[32-({1-[(2R)-2-{[6-chloro-8-fluoro-7-(3-hydroxynaphthalen-1-yl)-4-[4-(prop-2-enoyl)piperazin-1-yl]quinazolin-2-yl]oxy}propyl]piperidin-4-yl}oxy)-3,6,9,12,15,18,21,24,27,30-decaoxadotriacontanamido]-3,3-dimethylbutanoyl]-4-hydroxy-N-[(1S)-1-[4-(4-methyl-1,3-thiazol-5-yl)phenyl]ethyl]pyrrolidine-2-carboxamide]
> 1000 | – | C=CC(=O)N1CCN(c2nc(O[C@H](C)CN3CCC(OCCOCCOCCOCCOCCOCCOCCOCCOCC(=O)N[C@H](C(=O)N4C[C@H](O)C[C@H]4C(=O)N[C@@H](C)c4ccc(-c5scnc5C)cc4)C(C)(C)C)CC3)nc3c(F)c(-c4cc(O)cc5ccccc45)c(Cl)cc23)CC1 [Compound 84, (2S,4R)-1-[(2S)-2-[26-({1-[(2R)-2-{[6-chloro-8-fluoro-7-(3-hydroxynaphthalen-1-yl)-4-[4-(prop-2-enoyl)piperazin-1-yl]quinazolin-2-yl]oxy}propyl]piperidin-4-yl}oxy)-3,6,9,12,15,18,21,24-octaoxahexacosanamido]-3,3-dimethylbutanoyl]-4-hydroxy-N-[(1S)-1-[4-(4-methyl-1,3-thiazol-5-yl)phenyl]ethyl]pyrrolidine-2-carboxamide]
> 1000 | – | C=CC(=O)N1CCN(c2nc(O[C@H](C)CN3CCC(OCCOCCOCCOCCOc4cc(-c5scnc5C)ccc4CNC(=O)[C@@H]4C[C@@H](O)CN4C(=O)[C@@H](c4cc(C)no4)C(C)C)CC3)nc3c(F)c(-c4cc(O)cc5ccccc45)c(Cl)cc23)CC1 [Compound 76, (2S,4R)-N-({2-[2-(2-{2-[2-({1-[(2R)-2-{[6-chloro-8-fluoro-7-(3-hydroxynaphthalen-1-yl)-4-[4-(prop-2-enoyl)piperazin-1-yl]quinazolin-2-yl]oxy}propyl]piperidin-4-yl}oxy)ethoxy]ethoxy}ethoxy)ethoxy]-4-(4-methyl-1,3-thiazol-5-yl)phenyl}methyl)-4-hydroxy-1-[(2R)-3-methyl-2-(3-methyl-1,2-oxazol-5-yl)butanoyl]pyrrolidine-2-carboxamide]
> 1000 | – | C=CC(=O)N1CCN(c2nc(OC[C@@H]3C[C@@H](OCCOCCOCCOCCOCCOCCOCC(=O)N[C@H](C(=O)N4C[C@H](O)C[C@H]4C(=O)N[C@@H](C)c4ccc(-c5scnc5C)cc4)C(C)(C)C)CN3C)nc3c2CCN(c2cccc4ccccc24)C3)C[C@@H]1CC#N [Compound 81, (2S,4R)-1-[(2S)-2-(20-{[(3R,5S)-5-[({4-[(3S)-3-(cyanomethyl)-4-(prop-2-enoyl)piperazin-1-yl]-7-(naphthalen-1-yl)-5H,6H,7H,8H-pyrido[3,4-d]pyrimidin-2-yl}oxy)methyl]-1-methylpyrrolidin-3-yl]oxy}-3,6,9,12,15,18-hexaoxaicosanamido)-3,3-dimethylbutanoyl]-4-hydroxy-N-[(1S)-1-[4-(4-methyl-1,3-thiazol-5-yl)phenyl]ethyl]pyrrolidine-2-carboxamide]

More lines, now with the values behind:

Structure (SMILES) | DC50 [nM] | Dmax [%]
C=CC(=O)N1CCN(c2nc(O[C@H](C)CN3CCC(OCCOCC(=O)N[C@H](C(=O)N4C[C@H](O)C[C@H]4C(=O)N[C@@H](C)c4ccc(-c5scnc5C)cc4)C(C)(C)C)CC3)nc3c(Oc4c(Cl)c(F)cc5[nH]ncc45)nc(Cl)cc23)CC1 [Compound 26, (2S,4R)-1-[(2S)-2-{2-[2-({1-[(2R)-2-({6-chloro-8-[(5-chloro-6-fluoro-1H-indazol-4-yl)oxy]-4-[4-(prop-2-enoyl)piperazin-1-yl]pyrido[3,4-d]pyrimidin-2-yl}oxy)propyl]piperidin-4-yl}oxy)ethoxy]acetamido}-3,3-dimethylbutanoyl]-4-hydroxy-N-[(1S)-1-[4-(4-methyl-1,3-thiazol-5-yl)phenyl]ethyl]pyrrolidine-2-carboxamide] | > 1000 | 35 to 70
C=CC(=O)N1CCN(c2nc(O[C@H](C)CN3CCC(OCCOCCOCCOCCOc4cc(-c5scnc5C)ccc4CNC(=O)[C@@H]4C[C@@H](O)CN4C(=O)[C@H](c4cc(C)no4)C(C)C)CC3)nc3c(F)c(-c4cc(O)cc5ccccc45)c(Cl)cc23)CC1 [Compound 75, (2S,4R)-N-({2-[2-(2-{2-[2-({1-[(2R)-2-{[6-chloro-8-fluoro-7-(3-hydroxynaphthalen-1-yl)-4-[4-(prop-2-enoyl)piperazin-1-yl]quinazolin-2-yl]oxy}propyl]piperidin-4-yl}oxy)ethoxy]ethoxy}ethoxy)ethoxy]-4-(4-methyl-1,3-thiazol-5-yl)phenyl}methyl)-4-hydroxy-1-[(2S)-3-methyl-2-(3-methyl-1,2-oxazol-5-yl)butanoyl]pyrrolidine-2-carboxamide] | > 1000 | < 35
C=CC(=O)N1CCN(c2nc(O[C@H](C)CN3CCC(OCCOCCOCCOc4cc(-c5scnc5C)ccc4CNC(=O)[C@@H]4C[C@@H](O)CN4C(=O)[C@@H](c4cc(C)no4)C(C)C)CC3)nc3c(F)c(-c4cc(O)cc5ccccc45)c(Cl)cc23)CC1 [Compound 70, (2S,4R)-N-{[2-(2-{2-[2-({1-[(2R)-2-{[6-chloro-8-fluoro-7-(3-hydroxynaphthalen-1-yl)-4-[4-(prop-2-enoyl)piperazin-1-yl]quinazolin-2-yl]oxy}propyl]piperidin-4-yl}oxy)ethoxy]ethoxy}ethoxy)-4-(4-methyl-1,3-thiazol-5-yl)phenyl]methyl}-4-hydroxy-1-[(2R)-3-methyl-2-(3-methyl-1,2-oxazol-5-yl)butanoyl]pyrrolidine-2-carboxamide] | > 1000 | –
C=CC(=O)N1CCN(c2nc(O[C@H](C)CN3CCC(CCCN4CCN(CC(=O)N[C@H](C(=O)N5C[C@H](O)C[C@H]5C(=O)N[C@@H](C)c5ccc(-c6scnc6C)cc5)C(C)(C)C)CC4)CC3)nc3c(F)c(-c4cc(O)cc5ccccc45)c(Cl)cc23)CC1 [Compound 56, (2S,4R)-1-[(2S)-2-{2-[4-(3-{1-[(2R)-2-{[6-chloro-8-fluoro-7-(3-hydroxynaphthalen-1-yl)-4-[4-(prop-2-enoyl)piperazin-1-yl]quinazolin-2-yl]oxy}propyl]piperidin-4-yl}propyl)piperazin-1-yl]acetamido}-3,3-dimethylbutanoyl]-4-hydroxy-N-[(1S)-1-[4-(4-methyl-1,3-thiazol-5-yl)phenyl]ethyl]pyrrolidine-2-carboxamide] | > 1000 | –
